Experiments:
[1] = Body weight of SCA17 transgenic mice; assay type: in vivo; conditions: 4.5 mg/kg i.p. once every 2 days, 10 to 20 weeks old
Description: FIGS. 10A-10F show the effects of SB on the body weight and motor performance in SCA17 transgenic mice. Mice were grouped into wild type-saline (WT-saline), transgenic-saline (TG-saline), and transgenic-SB treatment (TG-SB) groups. Mice were injected intraperitoneally with saline or SB (4.5 mg/kg) at 8-week old once every 2 days. […] FIG. 10E and FIG. 10F show respectively the stride length of front-limb/hind-limb at the right-side and the left-side. The values represent means±SD, n=6. *p<0.05, comparing to the TG-saline group.
In order to understand the efficacy of silibinin in treating SCA17 in vivo, SCA17 transgenic mice (referring as SCA17 mice hereinafter) were used, which were kindly provided by Dr. Hsiu-Mei Hsieh in NTNU.
The mice were housed individually in ventilated cages with a 12-hour light/dark cycle. All mice were maintained in the animal facility in NTNU under specific pathogen-free conditions in accordance with institutional guidelines of the Animal Care and Use Committee at NTNU. The experimental animals were used for motor behavioral assessments, footprint test and the protein aggregation analysis in cerebellum.
Since the SCA17 mice were 8 weeks old, the mice were injected intraperitoneally with silibinin in saline at 4.5 mg/kg once every 2 days, designated as TG_SB group. The mice in TG_saline group were injected with same amount of saline.

SH-SY5Y cells = experiment: Western blotting of calpain-2 and SBDP after MSG; assay type: cell-based, Human; conditions: 15 μM, 100 mM MSG, 6 hours
Description: The levels of calpain-2 and SBDPs were measured by western blotting in 1×10^6 SH-SY5Y cells, wherein the control group (Ctrl) was untreated SH-SY5Y cells or the cells were treated with 100 mM MSG, 100 mM MSG+15 μM SB or 100 mM MSG+10 μM MK801 (MK) for 6 hours. Actin was used as a loading control.
In present embodiment, western blotting was performed to study whether silibinin protects SH-SY5Y cell from apoptosis due to glutamatergic excitotoxicity via calcium-dependent apoptosis pathway.
Calpain-2, a thiol proteinase, is activated by the increases of intracellular free calcium ions and the reduction of Bcl-2 level. The level of SBDPs was elevated by calcium-induced calpain-2 in glutamate-induced cell death. Therefore, calpain-2 and SBDPs were used as indicators in the present embodiment.
SH-SY5Y cells were treated with silibinin at pre-determined concentrations or 10 μM MK801 for 1 hour followed by the treatment of 100 mM MSG. Western blotting was performed to analyze the levels of calpain-2 and SBDP.

nTBP/Q79-EGFP cells = experiment: Dot blot and western blotting of protein aggregation, anti-TBP (N12); assay type: cell-based, Human; conditions: 15 μM, Dox 5 days
Description: FIGS. 9A-9C show the effects of SB on protein aggregation in nTBP/Q79-EGFP cells after the induction of Dox, which were analyzed by western blotting and dot blot assays. 1.0×10^6 nTBP/Q36-EGFP cells or nTBP/Q79-EGFP cells were pretreated with 15 μM SB for 1 hour followed by the treatment of 10 μg/mL Dox. Cell lysates were analyzed using western blotting and dot blot assays with anti-TBP (N12) antibody. […] The values represent means±SD. Data were the mean values of three independent experiments.
In the present example, dot blot and western blotting methods were used to analyze whether silibinin can reduce the protein aggregation in nTBP/Q79-EGFP cells induced by Dox.
nTBP/Q36-EGFP cells and nTBP/Q79-EGFP cells were cultured in 6 cm petri-dish for 24 hours followed by the treatment of 15 μM silibinin for 1 hour and the treatment of […] and 10 μM RA for 5 days. The proteins were extracted from the treated cells and analyzed by dot blot and western blotting, wherein the primary antibody is TBP(N-12) antibody and the secondary antibody is HRP conjugated anti-rabbit antibody.

## COc1cc(C2Oc3cc([C@H]4Oc5cc(O)cc(O)c5C(=O)[C@@H]4O)ccc3OC2CO)ccc1O (some centres unmarked) [silibinin]
[1]
  body weight compared to WT_saline group: no significant differences
SH-SY5Y cells
  reduction of SBDP level, compared to the increased level with MSG only: 250%
  reduction of calpain-2 level, compared to the increased level with MSG only: 200%
nTBP/Q79-EGFP cells
  reduction of protein aggregation, dot blot: 67%
  reduction of protein aggregation, western blotting: 90%

Reference: patent publication US20170246144A1, “METHOD OF PREVENTING OR TREATING SPINOCEREBELLAR ATAXIA BY ADMINISTRATING SILIBININ” (National Taiwan Normal University, priority 2016, published 2017)
